Test results as given in doi:10.1101/2024.01.18.576231v1 (biorxiv, 2024).

What was measured:
Format in all cases: binding
CRBN_ΔHBD [1] = target: T1, CRBN_ΔHBD (Homo sapiens, UniProt Q96SW2, INS193GNGNSG/DEL194-248); experiment: fluorescence polarization, displacement of Cy5-thalidomide; details: […] Cy5-thalidomide tracer, pH […]
CRBN_ΔHBD [2] = target: T1, CRBN_ΔHBD; experiment: fluorescence polarization, direct titration; details: labelled compound; […] tracer, pH […], RT
CRBN:DDB1 complex = CRBN:DDB1 complex (Homo sapiens, UniProt Q96SW2); experiment: fluorescence polarization, direct titration; details: labelled compound; […] tracer, pH […], RT
CRBN_TBD = CRBN_TBD (Homo sapiens, UniProt Q96SW2); experiment: fluorescence polarization, direct titration; details: labelled compound; […] tracer, pH […], RT

| Compound | EC50 (CRBN_ΔHBD [1]) [nM] | other results |
| --- | --- | --- |
| NC(=O)N1CCC(C#Cc2cccc3c2CN(C2CCC(=O)NC2=O)C3=O)CC1 (stereo not shown) [Z4999915373] | 218 |  |
| COc1cccc2c1CN(C1CCC(=O)NC1=O)C2=O (stereo not shown) [Z2508929002] | 223 |  |
| O=C1CCC(N2Cc3c(C=C4CCOC4)cccc3C2=O)C(=O)N1 (stereo not shown) [Z4223332422] | 193 |  |
| Nc1c(O)ccc2c1C(=O)N(C1CCC(=O)NC1=O)C2=O (stereo not shown) [Z3269026162] | 187 |  |
| COc1nccnc1CNc1ccc2c(c1)CN(C1CCC(=O)NC1=O)C2=O (stereo not shown) [Z5000208878] | 197 |  |
| Cc1nn(CCO)cc1CNc1ccc2c(c1)CN(C1CCC(=O)NC1=O)C2=O (stereo not shown) [Z5000207375] | 257 |  |
| COc1cc(N)cnc1-c1ccc2c(c1)CN(C1CCC(=O)NC1=O)C2=O (stereo not shown) [Z5000467358] | 151 |  |
| Cy5-conjugated thalidomide |  | Kd (CRBN_ΔHBD [2]): 13 nM; Kd (CRBN:DDB1 complex): 4.1 nM; Kd (CRBN_TBD): 5000 nM |
